Results reported in the NIST ThermoML archive (doi:10.1021/je060271a).
Several values for one entry are separate records, joined by “and”; a condition that tells them apart may be missing. Identical values can stand only once. ± gives the expanded uncertainty stated by the source.

Conditions: 283.15 K, Liquid, Vibrating tube method

CCCCCC(=O)OCC(COC(=O)CCCCC)(COC(=O)CCCCC)COC(=O)CCCCC [pentaerythritol tetrahexanoate]
Conditions | mass density
6771 kPa | 1008.1 ± 1.2 kg/m3
6771.2 kPa | 1008 ± 1.2 kg/m3
6771.4 kPa | 1008.1 ± 1.2 kg/m3 and 1008 ± 1.2 kg/m3
6771.6 kPa | 1008.1 ± 1.2 kg/m3
6771.7 kPa | 1008.1 ± 1.2 kg/m3
6771.9 kPa | 1008 ± 1.2 kg/m3
6772.1 kPa | 1008.1 ± 1.2 kg/m3
6772.3 kPa | 1008.1 ± 1.2 kg/m3
6772.4 kPa | 1008 ± 1.2 kg/m3 and 1008.1 ± 1.2 kg/m3 and 1008.2 ± 1.2 kg/m3
6772.6 kPa | 1008.1 ± 1.2 kg/m3 and 1008 ± 1.2 kg/m3
6772.8 kPa | 1008.1 ± 1.2 kg/m3 and 1007.9 ± 1.2 kg/m3
6772.9 kPa | 1008.1 ± 1.2 kg/m3
6773.1 kPa | 1008 ± 1.2 kg/m3 and 1008.2 ± 1.2 kg/m3
6773.3 kPa | 1008 ± 1.2 kg/m3 and 1008.2 ± 1.2 kg/m3
6773.5 kPa | 1008 ± 1.2 kg/m3 and 1008.1 ± 1.2 kg/m3
6773.6 kPa | 1008.1 ± 1.2 kg/m3 and 1008.2 ± 1.2 kg/m3 and 1008 ± 1.2 kg/m3
6773.7 kPa | 1008 ± 1.2 kg/m3
6773.8 kPa | 1008.1 ± 1.2 kg/m3 and 1008 ± 1.2 kg/m3
6774.1 kPa | 1008.1 ± 1.2 kg/m3
6774.2 kPa | 1008.1 ± 1.2 kg/m3
6774.3 kPa | 1008.1 ± 1.2 kg/m3
6774.5 kPa | 1008.2 ± 1.2 kg/m3 and 1008 ± 1.2 kg/m3 and 1008.1 ± 1.2 kg/m3
6774.7 kPa | 1008.1 ± 1.2 kg/m3 and 1008.2 ± 1.2 kg/m3 and 1008 ± 1.2 kg/m3
6774.8 kPa | 1007.9 ± 1.2 kg/m3 and 1008.1 ± 1.2 kg/m3 and 1008 ± 1.2 kg/m3
6775 kPa | 1008.1 ± 1.2 kg/m3 and 1007.9 ± 1.2 kg/m3
6775.1 kPa | 1008.2 ± 1.2 kg/m3 and 1008.1 ± 1.2 kg/m3
6775.2 kPa | 1008.1 ± 1.2 kg/m3 and 1008.2 ± 1.2 kg/m3
6775.4 kPa | 1008.2 ± 1.2 kg/m3 and 1008 ± 1.2 kg/m3
6776.1 kPa | 1008.1 ± 1.2 kg/m3
6776.2 kPa | 1008.1 ± 1.2 kg/m3
6776.6 kPa | 1008.2 ± 1.2 kg/m3 and 1008.1 ± 1.2 kg/m3
6776.8 kPa | 1008.1 ± 1.2 kg/m3 and 1008.2 ± 1.2 kg/m3 and 1008 ± 1.2 kg/m3
6776.9 kPa | 1008.2 ± 1.2 kg/m3 and 1008.1 ± 1.2 kg/m3
6777.1 kPa | 1008.1 ± 1.2 kg/m3
6777.3 kPa | 1008.1 ± 1.2 kg/m3
6777.5 kPa | 1008.1 ± 1.2 kg/m3 and 1008 ± 1.2 kg/m3
6777.6 kPa | 1008.1 ± 1.2 kg/m3 and 1008 ± 1.2 kg/m3
6777.8 kPa | 1008.1 ± 1.2 kg/m3 and 1008.2 ± 1.2 kg/m3 and 1008 ± 1.2 kg/m3
6778 kPa | 1008.2 ± 1.2 kg/m3
6778.1 kPa | 1008 ± 1.2 kg/m3 and 1008.1 ± 1.2 kg/m3 and 1008.2 ± 1.2 kg/m3
6778.3 kPa | 1008.1 ± 1.2 kg/m3 and 1008.2 ± 1.2 kg/m3
6778.5 kPa | 1008.1 ± 1.2 kg/m3 and 1008 ± 1.2 kg/m3 and 1007.9 ± 1.2 kg/m3
6778.7 kPa | 1008 ± 1.2 kg/m3 and 1008.1 ± 1.2 kg/m3
6779 kPa | 1008.1 ± 1.2 kg/m3
6779.2 kPa | 1008 ± 1.2 kg/m3 and 1008.1 ± 1.2 kg/m3
6779.3 kPa | 1008.2 ± 1.2 kg/m3
6779.5 kPa | 1008 ± 1.2 kg/m3 and 1008.1 ± 1.2 kg/m3
6779.7 kPa | 1008.1 ± 1.2 kg/m3 and 1008.2 ± 1.2 kg/m3
6779.8 kPa | 1008.2 ± 1.2 kg/m3
6779.9 kPa | 1008 ± 1.2 kg/m3 and 1008.1 ± 1.2 kg/m3
6780 kPa | 1008.1 ± 1.2 kg/m3 [middle of 4 runs]
6780.2 kPa | 1008.1 ± 1.2 kg/m3 and 1008 ± 1.2 kg/m3
6780.3 kPa | 1008 ± 1.2 kg/m3
6780.4 kPa | 1008 ± 1.2 kg/m3 and 1008.2 ± 1.2 kg/m3 and 1008.1 ± 1.2 kg/m3
6780.5 kPa | 1008.1 ± 1.2 kg/m3 and 1008 ± 1.2 kg/m3
6780.6 kPa | 1008.1 ± 1.2 kg/m3
6780.7 kPa | 1008 ± 1.2 kg/m3 and 1008.2 ± 1.2 kg/m3 and 1008.1 ± 1.2 kg/m3
6780.8 kPa | 1008.2 ± 1.2 kg/m3 and 1008.1 ± 1.2 kg/m3
6780.9 kPa | 1008.1 ± 1.2 kg/m3
6781 kPa | 1008.1 ± 1.2 kg/m3 and 1008 ± 1.2 kg/m3 and 1008.2 ± 1.2 kg/m3
6781.1 kPa | 1008.1 ± 1.2 kg/m3
6781.2 kPa | 1008.1 ± 1.2 kg/m3
6781.3 kPa | 1008.1 ± 1.2 kg/m3
6781.4 kPa | 1008.1 ± 1.2 kg/m3
6781.5 kPa | 1008.1 ± 1.2 kg/m3
6781.7 kPa | 1007.9 ± 1.2 kg/m3
6781.9 kPa | 1008.1 ± 1.2 kg/m3 and 1008 ± 1.2 kg/m3
6782 kPa | 1008.2 ± 1.2 kg/m3
6782.2 kPa | 1008.2 ± 1.2 kg/m3 and 1008.1 ± 1.2 kg/m3 and 1008 ± 1.2 kg/m3
6782.4 kPa | 1007.9 ± 1.2 kg/m3 and 1008.2 ± 1.2 kg/m3 and 1008.1 ± 1.2 kg/m3
6782.6 kPa | 1008.1 ± 1.2 kg/m3 and 1008 ± 1.2 kg/m3
6782.7 kPa | 1008.2 ± 1.2 kg/m3 and 1008.1 ± 1.2 kg/m3 and 1008 ± 1.2 kg/m3
6782.9 kPa | 1008.1 ± 1.2 kg/m3 and 1008 ± 1.2 kg/m3
6783.1 kPa | 1007.9 ± 1.2 kg/m3 and 1008.1 ± 1.2 kg/m3 and 1008 ± 1.2 kg/m3
6783.2 kPa | 1008 ± 1.2 kg/m3
6783.3 kPa | 1008.1 ± 1.2 kg/m3 and 1008 ± 1.2 kg/m3
6783.4 kPa | 1008.1 ± 1.2 kg/m3 [middle of 4 runs]
6783.6 kPa | 1008 ± 1.2 kg/m3 and 1008.1 ± 1.2 kg/m3 and 1008.2 ± 1.2 kg/m3
6783.8 kPa | 1008.1 ± 1.2 kg/m3
6784.1 kPa | 1008 ± 1.2 kg/m3
6784.3 kPa | 1008.1 ± 1.2 kg/m3
6784.5 kPa | 1008 ± 1.2 kg/m3
6784.6 kPa | 1008.1 ± 1.2 kg/m3
6784.7 kPa | 1008 ± 1.2 kg/m3 and 1008.1 ± 1.2 kg/m3
6784.8 kPa | 1008.1 ± 1.2 kg/m3
6785 kPa | 1008.1 ± 1.2 kg/m3 and 1008.2 ± 1.2 kg/m3
6785.1 kPa | 1008.1 ± 1.2 kg/m3 and 1008 ± 1.2 kg/m3
6785.2 kPa | 1008.2 ± 1.2 kg/m3 and 1008.1 ± 1.2 kg/m3
6785.3 kPa | 1008.1 ± 1.2 kg/m3 and 1008 ± 1.2 kg/m3
6785.5 kPa | 1007.9 ± 1.2 kg/m3
6785.7 kPa | 1008 ± 1.2 kg/m3 and 1008.2 ± 1.2 kg/m3 and 1008.1 ± 1.2 kg/m3
6785.8 kPa | 1008.1 ± 1.2 kg/m3 and 1008 ± 1.2 kg/m3 and 1008.2 ± 1.2 kg/m3
6786 kPa | 1008.1 ± 1.2 kg/m3 and 1008 ± 1.2 kg/m3
6786.2 kPa | 1008.1 ± 1.2 kg/m3 and 1008.2 ± 1.2 kg/m3
6786.3 kPa | 1008.1 ± 1.2 kg/m3
6786.4 kPa | 1008.1 ± 1.2 kg/m3
6786.5 kPa | 1008 ± 1.2 kg/m3 and 1008.2 ± 1.2 kg/m3 and 1008.1 ± 1.2 kg/m3
6786.7 kPa | 1008 ± 1.2 kg/m3 and 1008.1 ± 1.2 kg/m3
6786.9 kPa | 1008 ± 1.2 kg/m3 and 1008.1 ± 1.2 kg/m3
6787 kPa | 1008 ± 1.2 kg/m3
6787.2 kPa | 1008.1 ± 1.2 kg/m3 and 1008 ± 1.2 kg/m3
6787.4 kPa | 1008 ± 1.2 kg/m3 and 1008.2 ± 1.2 kg/m3 and 1008.1 ± 1.2 kg/m3
6787.7 kPa | 1008.1 ± 1.2 kg/m3
6787.9 kPa | 1008 ± 1.2 kg/m3 and 1008.1 ± 1.2 kg/m3
6788.1 kPa | 1008.2 ± 1.2 kg/m3 and 1008.1 ± 1.2 kg/m3
6788.2 kPa | 1008 ± 1.2 kg/m3 and 1008.1 ± 1.2 kg/m3
6788.4 kPa | 1008.1 ± 1.2 kg/m3
6789.1 kPa | 1008.2 ± 1.2 kg/m3
6789.2 kPa | 1008 ± 1.2 kg/m3
6789.4 kPa | 1008 ± 1.2 kg/m3
6789.5 kPa | 1008 ± 1.2 kg/m3 and 1008.2 ± 1.2 kg/m3 and 1008.1 ± 1.2 kg/m3
6789.6 kPa | 1008.2 ± 1.2 kg/m3 and 1008.1 ± 1.2 kg/m3 and 1008 ± 1.2 kg/m3
6789.7 kPa | 1008.1 ± 1.2 kg/m3 and 1008 ± 1.2 kg/m3
6789.8 kPa | 1008 ± 1.2 kg/m3 and 1008.1 ± 1.2 kg/m3 and 1008.2 ± 1.2 kg/m3
6789.9 kPa | 1008 ± 1.2 kg/m3
6795.1 kPa | 1008.1 ± 1.2 kg/m3
6804.6 kPa | 1008.1 ± 1.2 kg/m3
6816.7 kPa | 1008 ± 1.2 kg/m3
6826.4 kPa | 1008 ± 1.2 kg/m3
6835.7 kPa | 1008.2 ± 1.2 kg/m3
6845.5 kPa | 1008.1 ± 1.2 kg/m3
6856.1 kPa | 1008.3 ± 1.2 kg/m3
6867.3 kPa | 1008.1 ± 1.2 kg/m3
6879.6 kPa | 1008.1 ± 1.2 kg/m3
6889.1 kPa | 1008.1 ± 1.2 kg/m3
6899.3 kPa | 1008.1 ± 1.2 kg/m3
6909.5 kPa | 1008.1 ± 1.2 kg/m3
6921.6 kPa | 1008.2 ± 1.2 kg/m3
6931.7 kPa | 1008.2 ± 1.2 kg/m3
6941.9 kPa | 1008.1 ± 1.2 kg/m3
6954.2 kPa | 1008.3 ± 1.2 kg/m3
6964.7 kPa | 1008.2 ± 1.2 kg/m3
6975.4 kPa | 1008.1 ± 1.2 kg/m3
6988.1 kPa | 1008.1 ± 1.2 kg/m3
6998.9 kPa | 1008.2 ± 1.2 kg/m3
7009.8 kPa | 1008.1 ± 1.2 kg/m3
7020.4 kPa | 1008.2 ± 1.2 kg/m3
7033.3 kPa | 1008.2 ± 1.2 kg/m3
7043.8 kPa | 1008.3 ± 1.2 kg/m3
7054.9 kPa | 1008.2 ± 1.2 kg/m3
7065.4 kPa | 1008.3 ± 1.2 kg/m3
7078.4 kPa | 1008.2 ± 1.2 kg/m3
7089.3 kPa | 1008.3 ± 1.2 kg/m3
7100.3 kPa | 1008.3 ± 1.2 kg/m3
7113.3 kPa | 1008.3 ± 1.2 kg/m3
